Here are results for 43 compounds from patent publication US11584748B2, “Spirocyclic compounds” (priority 2018, dated 2023).

Each structure is given as a SMILES string. pKd: −log10 of the molar value. A value given as a limit tells only on which side of the number the result lay.

hCereblon(M1-L442)_hDDB1(M1-H1140), sequence (Q96SW2 whole entry, looked up): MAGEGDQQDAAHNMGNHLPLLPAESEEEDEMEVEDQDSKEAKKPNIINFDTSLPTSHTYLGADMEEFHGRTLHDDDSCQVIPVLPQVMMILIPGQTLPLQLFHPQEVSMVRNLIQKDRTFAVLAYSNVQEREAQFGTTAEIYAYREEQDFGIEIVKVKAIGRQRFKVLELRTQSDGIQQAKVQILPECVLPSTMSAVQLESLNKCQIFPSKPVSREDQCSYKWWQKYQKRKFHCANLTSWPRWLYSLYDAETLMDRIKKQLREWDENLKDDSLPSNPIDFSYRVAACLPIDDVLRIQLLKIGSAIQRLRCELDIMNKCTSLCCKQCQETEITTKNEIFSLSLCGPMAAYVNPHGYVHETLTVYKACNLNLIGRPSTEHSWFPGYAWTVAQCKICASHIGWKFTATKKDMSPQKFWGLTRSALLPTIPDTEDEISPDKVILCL
hCereblon(M1-L442)_hDDB1(M1-H1140), sequence (Q16531 whole entry partner, looked up): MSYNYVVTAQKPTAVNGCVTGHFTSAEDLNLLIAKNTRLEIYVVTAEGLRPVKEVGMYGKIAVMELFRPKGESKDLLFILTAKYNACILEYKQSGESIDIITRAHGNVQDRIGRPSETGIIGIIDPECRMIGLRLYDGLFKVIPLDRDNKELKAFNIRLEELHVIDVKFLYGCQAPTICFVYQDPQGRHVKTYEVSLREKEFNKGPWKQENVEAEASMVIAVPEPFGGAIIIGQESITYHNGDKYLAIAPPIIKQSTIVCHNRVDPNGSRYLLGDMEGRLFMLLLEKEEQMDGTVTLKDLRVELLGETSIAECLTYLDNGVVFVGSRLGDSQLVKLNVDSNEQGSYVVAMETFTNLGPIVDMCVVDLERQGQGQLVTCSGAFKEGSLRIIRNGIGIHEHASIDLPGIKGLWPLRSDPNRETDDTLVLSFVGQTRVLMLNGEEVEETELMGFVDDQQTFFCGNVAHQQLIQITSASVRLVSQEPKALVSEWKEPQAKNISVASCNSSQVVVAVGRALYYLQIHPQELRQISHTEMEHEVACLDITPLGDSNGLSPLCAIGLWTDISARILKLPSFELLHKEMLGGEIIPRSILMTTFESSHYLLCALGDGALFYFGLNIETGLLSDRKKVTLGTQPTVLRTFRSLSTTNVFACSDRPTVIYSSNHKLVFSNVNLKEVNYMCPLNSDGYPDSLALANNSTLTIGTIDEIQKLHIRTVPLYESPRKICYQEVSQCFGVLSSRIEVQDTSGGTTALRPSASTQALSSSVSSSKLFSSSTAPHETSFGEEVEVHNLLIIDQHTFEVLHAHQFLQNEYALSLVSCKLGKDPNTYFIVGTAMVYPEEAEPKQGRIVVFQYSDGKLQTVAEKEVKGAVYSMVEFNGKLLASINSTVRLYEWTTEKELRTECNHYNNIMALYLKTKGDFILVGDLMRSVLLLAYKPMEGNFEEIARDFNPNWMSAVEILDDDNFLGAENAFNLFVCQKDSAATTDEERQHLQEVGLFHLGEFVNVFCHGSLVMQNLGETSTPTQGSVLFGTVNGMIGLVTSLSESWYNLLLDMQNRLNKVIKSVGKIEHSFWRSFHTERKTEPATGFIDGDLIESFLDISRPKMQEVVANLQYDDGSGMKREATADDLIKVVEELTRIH

The assay has as its target hCereblon(M1-L442)_hDDB1(M1-H1140) (Homo sapiens (Human), UniProt Q96SW2). Briefly: Fluorescence direct binding (tryptophan fluorescence titration). To be noted: 20° C., excitation 280 nm, emission 340 nm, 50 mM Hepes 7.4 200 mM NaCl; read-out: Fluorescence h-Cereblon_DDB1 Mean Kd_EQ.
Description: Fluorescence Direct Binding Protocol
Determination of the affinities of compounds to protein containing one or more tryptophan is measurable by monitoring the fluorescence emission in direct mode. The measurements, depending on the protein available amounts, were performed either manually in a cuvette on ISS-PCI photon counting spectrofluorometer or automatically in well plates on a fluorescence plate reader device. Fluorescence titrations were performed at 20° C. in the chosen binding assay buffer by using a defined constant protein concentration against ligand concentration variations. Small aliquots of known ligand concentration solubilized in DMSO were added and the fluorescence, excited at 280 nm, was recorded at 340 nm.
`O=C1CCC2(CCN(c3nc4cc([N+](=O)[O-])ccc4[nH]3)C2)C(=O)N1` (single isomer, unassigned) [Example 33, 2-(5-nitro-1H-benzo[d]imidazol-2-yl)-2,7-diazaspiro[4.5] decane-6,8-dione]: the pKd was over 9.00.
Take `O=C1CCC2(CCN(c3nc4cc([N+](=O)[O-])ccc4[nH]3)C2)C(=O)N1` (single isomer, unassigned) [Example 34, 2-(5-nitro-1H-benzo[d]imidazol-2-yl)-2,7-diazaspiro[4.5] decane-6,8-dione]: the pKd was 8.30.
Then `O=C1CC2(CCN(C(=O)[C@H]3CCCc4ccccc43)CC2)C(=O)N1` (single isomer, unassigned) [Example 77], with 8.22; and `O=C1CC2(CCN(C(=O)[C@@H]3CCCc4ccccc43)CC2)C(=O)N1` (single isomer, unassigned) [Example 78], with 8.40; and `Cc1sc2c(c1C)C(c1ccc(Cl)cc1)=NC(CC(=O)NCCCCCCCC(=O)Nc1cccc(C(=O)N3CCC4(CCC(=O)NC4=O)C3)c1)c1nnc(C)n1-2` (stereo in doubt) [Example 57, 8-(2-((R)-4-(4-chlorophenyl)-2,3,9-trimethyl-6H-thieno[3,2-f] [1,2,4]triazolo [4,3-a] [1,4]diazepin-6-yl)acetamido)-N-(3-(6,8-dioxo-2,7-diazaspiro[4.5]decane-2-carbonyl)phenyl) octanamide], with 6.97.
Then `O=C1CCC2(CCNC2)C(=O)N1` (stereo not shown) [Example 1, 2,7-diazaspiro [4.5]decane-6,8-dione], with 7.08; and `CN1CC2(CCC(=O)NC2=O)CC1=O` (stereo not shown) [Example 2, 2-methyl-2,7-diazaspiro[4.5] decane-3,6,8-trione], with 6.80.
As for `COC(=O)c1ccc(N2CCC3(CCC(=O)NC3=O)C2)nc1` (stereo not shown) [Example 6, methyl 6-(6,8-dioxo-2,7-diazaspiro[4.5]decan-2-yl) nicotinate], the pKd was over 9.00.
In the case of `O=C1CCC2(CCN(c3nc4cc([N+](=O)[O-])ccc4[nH]3)C2)C(=O)N1` (stereo not shown) [Example 9, 2-(5-nitro-1H-benzo[d]imidazol-2-yl)-2,7-diazaspiro [4.5]decane-6,8-dione], the pKd was 8.10.
With `O=C1CCC2(CCN(c3nc4ccccc4s3)C2)C(=O)N1` (stereo not shown) [Example 12, 2-(benzo[d]thiazol-2-yl)-2,7-diazaspiro [4.5]decane-6,8-dione] the figure was 9.00; with `COC(=O)c1cccc2nc(N3CCC4(CCC(=O)NC4=O)C3)[nH]c12` (stereo not shown) [Example 13, methyl 2-(6,8-dioxo-2,7-diazaspiro[4.5]decan-2-yl)-1H-benzo[d]imidazole-7-carboxylate], 7.02; with `O=C1CCC2(CCN(c3ccc4ccccc4n3)C2)C(=O)N1` (stereo not shown) [Example 15, 2-(quinolin-2-yl)-2,7-diazaspiro[4.5] decane-6,8-dione], 8.22.
Then `Cn1c(N2CCC3(CCC(=O)NC3=O)C2)nc2ccccc21` (stereo not shown) [Example 19, 2-(1-methyl-1H-benzo[d]imidazol-2-yl)-2,7-diazaspiro[4.5] decane-6,8-dione], with 7.52; and `O=C1CCC2(CCN(c3nc4cnccc4s3)C2)C(=O)N1` (stereo not shown) [Example 20, 2-(thiazolo[4,5-c]pyridin-2-yl)-2,7-diazaspiro[4.5] decane-6,8-dione], with 8.22; and `COC(=O)c1ccc2nc(N3CCC4(CCC(=O)NC4=O)C3)sc2c1` (stereo not shown) [Example 21, methyl 2-(6,8-dioxo-2,7-diazaspiro [4.5]decan-2-yl)benzo[d]thiazole-6-carboxylate], with 8.10.
With `COC(=O)c1csc(N2CCC3(CCC(=O)NC3=O)C2)n1` (stereo not shown) [Example 22, methyl 2-(6,8-dioxo-2,7-diazaspiro[4.5]decan-2-yl)thiazole-4-carboxylate] the figure was 7.36; with `COC(=O)c1cnc(N2CCC3(CCC(=O)NC3=O)C2)s1` (stereo not shown) [Example 23, methyl 2-(6,8-dioxo-2,7-diazaspiro[4.5]decan-2-yl)thiazole-5-carboxylate], 8.10.
As to `CC(C)(C)OC(=O)c1ccc(N2CCC3(CCC(=O)NC3=O)C2)nc1` (stereo not shown) [Example 24, tert-butyl 6-(6,8-dioxo-2,7-diazaspiro[4.5]decan-2-yl) nicotinate], the pKd was 8.70.
Then `O=C1CCC2(CCN(C(=O)c3cccc4c3CC(=O)N4)C2)C(=O)N1` (stereo not shown) [Example 27, 2-(2-oxoindoline-4-carbonyl)-2,7-diazaspiro[4.5] decane-6,8-dione], with 7.33; and `COC(=O)c1ccc(C(=O)N2CCC3(CCC(=O)NC3=O)C2)cc1` (stereo not shown) [Example 28, methyl 4-(6,8-dioxo-2,7-diazaspiro[4.5]decane-2-carbonyl) benzoate], with 7.89.
Then `O=C1CCC2(CCN(C(=O)c3ccc4scnc4c3)C2)C(=O)N1` (stereo not shown) [Example 29, 2-(benzo[d]thiazole-5-carbonyl)-2,7-diazaspiro[4.5] decane-6,8-dione], with over 9.00; and `O=C1CCC2(CCN(c3ccc([N+](=O)[O-])cn3)C2)C(=O)N1` (stereo not shown) [Example 30, 2-(5-nitropyridin-2-yl)-2,7-diazaspiro [4.5]decane-6,8-dione], with 9.00; and `COC(=O)c1cccc(N2CCC3(CCC(=O)NC3=O)C2)n1` (stereo not shown) [Example 32, methyl 6-(6,8-dioxo-2,7diazaspiro[4.5]decan-2-yl)picolinate], with 9.00.
For the compound `CC(=O)N1CCc2c(C(=O)N3CCC4(CCC(=O)NC4=O)C3)cccc21` (stereo not shown) [Example 35, 2-(1-acetylindoline-4-carbonyl)-2,7-diazaspiro[4.5] decane-6,8-dione], the pKd is over 9.00.
Then `O=C1CCC2(CCN(C(=O)c3ccccc3)C2)C(=O)N1` (stereo not shown) [Example 36, 2-benzoyl-2,7-diazaspiro[4.5] decane-6,8-dione], with over 9.00; and `CC(=O)Nc1cccc(C(=O)N2CCC3(CCC(=O)NC3=O)C2)c1` (stereo not shown) [Example 37, N-(3-(6,8-dioxo-2,7-diazaspiro[4.5]decane-2-carbonyl)phenyl)acetamide], with 8.22.
Then `O=C1CCC2(CCN(C(=O)c3cccc4[nH]ncc34)C2)C(=O)N1` (stereo not shown) [Example 38, 2-(1H-indazole-4-carbonyl)-2,7-diazaspiro[4.5] decane-6,8-dione], with 7.08.
Then `O=C1CCC2(CCN(C(=O)c3cccc4c3CCN4)C2)C(=O)N1` (stereo not shown) [Example 40, 2-(indoline-4-carbonyl)-2,7-diazaspiro[4.5] decane-6,8-dione], with 8.22; and `O=C1CCC2(CCN(C(=O)c3ccc4c(c3)NCC4)C2)C(=O)N1` (stereo not shown) [Example 41, 2-(indoline-6-carbonyl)-2,7-diazaspiro[4.5] decane-6,8-dione], with 7.12.
As to `CC(=O)N1CCc2ccc(C(=O)N3CCC4(CCC(=O)NC4=O)C3)cc21` (stereo not shown) [Example 42, 2-(1-acetylindoline-6-carbonyl)-2,7-diazaspiro[4.5] decane-6,8-dione], the pKd is 8.10.
With `O=C1CCC2(CCN(C(=O)c3coc4ccccc34)C2)C(=O)N1` (stereo not shown) [Example 44, 2-(benzofuran-3-carbonyl)-2,7-diazaspiro[4.5] decane-6,8-dione] the figure was 8.05.
With `O=C1CCC2(CCN(C(=O)c3cnn4ccccc34)C2)C(=O)N1` (stereo not shown) [Example 45, 2-(pyrazolo[1,5-a]pyridine-3-carbonyl)-2,7-diazaspiro[4.5] decane-6,8-dione], the pKd is over 9.00.
Then `O=C1CCC2(CCN(C(=O)c3ccc4ncoc4c3)C2)C(=O)N1` (stereo not shown) [Example 46, 2-(benzo[d]oxazole-6-carbonyl)-2,7-diazaspiro[4.5] decane-6,8-dione], with 8.00; and `O=C1CCC2(CCN(C(=O)c3ccc4c(c3)CCN4)C2)C(=O)N1` (stereo not shown) [Example 47, 2-(indoline-5-carbonyl)-2,7-diazaspiro[4.5] decane-6,8-dione], with 8.40.
Then `CC(=O)Nc1nc2cc(C(=O)N3CCC4(CCC(=O)NC4=O)C3)ccc2s1` (stereo not shown) [Example 50, N-(5-(6,8-dioxo-2,7-diazaspiro[4.5]decane-2-carbonyl)benzo[d]thiazol-2-yl)acetamide], with 7.35.
With `CC(=O)Nc1nc2ccc(C(=O)N3CCC4(CCC(=O)NC4=O)C3)cc2s1` (stereo not shown) [Example 51, N-(6-(6,8-dioxo-2,7-diazaspiro[4.5]decane-2-carbonyl)benzo[d]thiazol-2-yl)acetamide] the figure was 7.03.
As for `CC(=O)N1CCc2cc(C(=O)N3CCC4(CCC(=O)NC4=O)C3)ccc21` (stereo not shown) [Example 52, 2-(1-acetylindoline-5-carbonyl)-2,7-diazaspiro[4.5] decane-6,8-dione], the pKd is 7.39.
With `CC(C)(C)OC(=O)Nc1nc2cc(C(=O)N3CCC4(CCC(=O)NC4=O)C3)ccc2s1` (stereo not shown) [Example 53, tert-butyl (5-(6,8-dioxo-2,7-diazaspiro[4.5]decane-2-carbonyl)benzo[d]thiazol-2-yl)carbamate] the figure was 8.22.
Consider `CC(C)(C)OC(=O)Nc1nc2ccc(C(=O)N3CCC4(CCC(=O)NC4=O)C3)cc2s1` (stereo not shown) [Example 54, tert-butyl (6-(6,8-dioxo-2,7-diazaspiro[4.5]decane-2-carbonyl)benzo[d]thiazol-2-yl)carbamate], for which the pKd is 8.40.
With `Nc1nc2ccc(C(=O)N3CCC4(CCC(=O)NC4=O)C3)cc2s1` (stereo not shown) [Example 55, 2-(2-aminobenzo [d]thiazole-6-carbonyl)-2,7-diazaspiro [4.5]decane-6,8-dione], the pKd is 7.59.
Then `O=C1NC(=O)C2(CCN(C(=O)[C@H]3CCCc4ccccc43)CC2)N1` [Example 58, (S)-8-(1,2,3,4-tetrahydronaphthalene-1-carbonyl)-1,3,8-triazaspiro[4.5]decane-2,4-dione], with 8.40.
With `O=C1NC(=O)C2(CCN(C(=O)[C@@H]3CCCc4ccccc43)CC2)N1` [Example 59, (R)-8-(1,2,3,4-tetrahydronaphthalene-1-carbonyl)-1,3,8-triazaspiro[4.5]decane-2,4-dione] the figure was 8.30; with `O=C1NC(=O)C2(CCN(C(=O)c3ccccc3)CC2)N1` [Example 60, 8-benzoyl-1,3,8-triazaspiro[4.5]decane-2,4-dione], 8.70.
